Reference: ChEMBL document CHEMBL5649169 (ChemMedChem, 2018)

Legend:
[1] = target: Serine/threonine-protein kinase pim-2 (Homo sapiens) (UniProt Q9P1W9)
[2] = target: Peroxisomal biogenesis factor 3 (Homo sapiens) (UniProt P56589)
Homo sapiens [3] = organism: Homo sapiens
[4] = target: Small ribosomal subunit protein RACK1 (Homo sapiens) (UniProt P63244)
[5] = target: Sorting nexin-2 (Homo sapiens) (UniProt O60749)
[6] = target: Macrophage migration inhibitory factor (Homo sapiens) (UniProt P14174)
[7] = target: Large ribosomal subunit protein bL9m (Homo sapiens) (UniProt Q9BYD2)
[8] = target: Splicing factor 3B subunit 2 (Homo sapiens) (UniProt Q13435)
[9] = target: Protein prenyltransferase alpha subunit repeat-containing protein 1 (Homo sapiens) (UniProt Q7Z6K3)
[10] = target: Mismatch repair endonuclease PMS2 (Homo sapiens) (UniProt P54278)
[11] = target: Tubulin beta-4A chain (Homo sapiens) (UniProt P04350)
[12] = target: Elongation factor G, mitochondrial (Homo sapiens) (UniProt Q96RP9)
[13] = target: Replication factor C subunit 5 (Homo sapiens) (UniProt P40937)
Macoilin (Homo sapiens) = Macoilin (Homo sapiens) (UniProt Q8N5G2)
[14] = target: ATP synthase F(0) complex subunit 8 (Homo sapiens) (UniProt P03928)
Homo sapiens [15] = organism: Homo sapiens; remark: listed apart in the source
[16] = target: RNA polymerase-associated protein CTR9 homolog (Homo sapiens) (UniProt Q6PD62)
[17] = target: Ubiquitin-protein ligase E3A (Homo sapiens) (UniProt Q05086)
[18] = target: Ubiquitin-conjugating enzyme E2 G2 (Homo sapiens) (UniProt P60604)
Homo sapiens [19] = organism: Homo sapiens; remark: listed apart in the source
[20] = target: Macrophage-stimulating protein receptor (Homo sapiens) (UniProt Q04912)
[21] = target: N(G),N(G)-dimethylarginine dimethylaminohydrolase 1 (Homo sapiens) (UniProt O94760)
[22] = target: Probable helicase with zinc finger domain (Homo sapiens) (UniProt P42694)
[23] = target: ALK tyrosine kinase receptor (Homo sapiens) (UniProt Q9UM73)
[24] = target: Transcriptional repressor CTCF (Homo sapiens) (UniProt P49711)
[25] = target: Cytochrome c oxidase assembly protein COX14 (Homo sapiens) (UniProt Q96I36)
[26] = target: Phosphatidate cytidylyltransferase 2 (Homo sapiens) (UniProt O95674)
[27] = target: Small ribosomal subunit protein mS34 (Homo sapiens) (UniProt P82930)
[28] = target: Calcium-binding and coiled-coil domain-containing protein 2 (Homo sapiens) (UniProt Q13137)
[29] = target: E3 ubiquitin-protein ligase RNF5 (Homo sapiens) (UniProt Q99942)
[30] = target: Large ribosomal subunit protein bL21m (Homo sapiens) (UniProt Q7Z2W9)
[31] = target: AP-3 complex subunit delta-1 (Homo sapiens) (UniProt O14617)
[32] = target: Ribosomal protein S6 kinase beta-1 (Homo sapiens) (UniProt P23443)
[33] = target: MAP/microtubule affinity-regulating kinase 4 (Homo sapiens) (UniProt Q96L34)
[34] = target: Solute carrier family 2, facilitated glucose transporter member 1 (Homo sapiens) (UniProt P11166)
[35] = target: Nascent polypeptide-associated complex subunit alpha (Homo sapiens) (UniProt Q13765)
[36] = target: Prospero homeobox protein 1 (Homo sapiens) (UniProt Q92786)
[37] = target: Electrogenic aspartate/glutamate antiporter SLC25A13, mitochondrial (Homo sapiens) (UniProt Q9UJS0)
[38] = target: Dolichyl-diphosphooligosaccharide--protein glycosyltransferase 48 kDa subunit (Homo sapiens) (UniProt P39656)
[39] = target: Protein kinase C zeta type (Homo sapiens) (UniProt Q05513)
[40] = target: Exportin-4 (Homo sapiens) (UniProt Q9C0E2)
[41] = target: Trifunctional purine biosynthetic protein adenosine-3 (Homo sapiens) (UniProt P22102)
[42] = target: Protein PRRC2C (Homo sapiens) (UniProt Q9Y520)
[43] = target: Small ribosomal subunit protein eS28 (Homo sapiens) (UniProt P62857)
[44] = target: Solute carrier family 25 member 3 (Homo sapiens) (UniProt Q00325)
[45] = target: Brefeldin A-inhibited guanine nucleotide-exchange protein 1 (Homo sapiens) (UniProt Q9Y6D6)
[46] = target: Ras-related protein Rab-6A (Homo sapiens) (UniProt P20340)
Also: assay method not described here.

Sequence of Protein prenyltransferase alpha subunit repeat-containing protein 1 (Homo sapiens) (Q7Z6K3 whole entry): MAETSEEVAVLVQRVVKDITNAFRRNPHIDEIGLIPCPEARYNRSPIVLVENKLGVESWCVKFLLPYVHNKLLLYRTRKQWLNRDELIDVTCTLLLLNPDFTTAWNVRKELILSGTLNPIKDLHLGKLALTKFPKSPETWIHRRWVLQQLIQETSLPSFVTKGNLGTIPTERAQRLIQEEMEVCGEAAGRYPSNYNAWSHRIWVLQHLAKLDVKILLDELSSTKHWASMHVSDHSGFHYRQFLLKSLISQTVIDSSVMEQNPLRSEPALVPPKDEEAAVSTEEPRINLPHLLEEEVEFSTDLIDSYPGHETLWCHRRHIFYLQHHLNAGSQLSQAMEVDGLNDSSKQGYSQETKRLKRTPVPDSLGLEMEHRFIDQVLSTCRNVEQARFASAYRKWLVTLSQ
Sequence of Replication factor C subunit 5 (Homo sapiens) (P40937 whole entry): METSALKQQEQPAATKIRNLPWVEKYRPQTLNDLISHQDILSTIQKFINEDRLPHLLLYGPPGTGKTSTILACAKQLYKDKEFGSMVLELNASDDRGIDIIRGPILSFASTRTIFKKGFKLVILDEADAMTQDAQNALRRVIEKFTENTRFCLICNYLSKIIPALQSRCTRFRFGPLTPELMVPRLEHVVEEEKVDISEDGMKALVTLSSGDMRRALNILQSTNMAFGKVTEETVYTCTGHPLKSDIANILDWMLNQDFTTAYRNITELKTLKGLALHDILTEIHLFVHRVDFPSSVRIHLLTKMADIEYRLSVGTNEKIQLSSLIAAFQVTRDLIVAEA
Sequence of Ubiquitin-protein ligase E3A (Homo sapiens) (Q05086 whole entry): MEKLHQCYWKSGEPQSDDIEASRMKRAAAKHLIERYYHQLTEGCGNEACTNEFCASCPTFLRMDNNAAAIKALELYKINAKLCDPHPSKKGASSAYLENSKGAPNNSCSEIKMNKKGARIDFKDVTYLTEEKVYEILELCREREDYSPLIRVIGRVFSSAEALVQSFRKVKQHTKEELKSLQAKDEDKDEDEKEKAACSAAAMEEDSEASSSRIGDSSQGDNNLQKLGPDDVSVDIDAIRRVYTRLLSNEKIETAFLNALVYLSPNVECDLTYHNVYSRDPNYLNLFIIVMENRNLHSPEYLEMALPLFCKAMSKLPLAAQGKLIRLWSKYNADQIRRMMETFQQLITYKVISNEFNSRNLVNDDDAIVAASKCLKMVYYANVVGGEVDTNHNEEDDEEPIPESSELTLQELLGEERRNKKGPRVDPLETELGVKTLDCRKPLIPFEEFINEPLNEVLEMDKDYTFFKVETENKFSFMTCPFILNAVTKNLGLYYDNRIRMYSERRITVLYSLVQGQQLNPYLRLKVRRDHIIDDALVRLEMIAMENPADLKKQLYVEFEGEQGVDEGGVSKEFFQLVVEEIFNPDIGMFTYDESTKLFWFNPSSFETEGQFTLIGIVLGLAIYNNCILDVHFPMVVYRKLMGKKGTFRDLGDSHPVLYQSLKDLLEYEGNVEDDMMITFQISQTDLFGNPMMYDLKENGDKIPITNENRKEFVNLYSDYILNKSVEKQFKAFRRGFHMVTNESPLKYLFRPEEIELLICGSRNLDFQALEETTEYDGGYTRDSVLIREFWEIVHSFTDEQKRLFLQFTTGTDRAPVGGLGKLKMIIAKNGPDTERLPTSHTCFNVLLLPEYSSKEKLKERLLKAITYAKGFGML
Sequence of Exportin-4 (Homo sapiens) (Q9C0E2 whole entry): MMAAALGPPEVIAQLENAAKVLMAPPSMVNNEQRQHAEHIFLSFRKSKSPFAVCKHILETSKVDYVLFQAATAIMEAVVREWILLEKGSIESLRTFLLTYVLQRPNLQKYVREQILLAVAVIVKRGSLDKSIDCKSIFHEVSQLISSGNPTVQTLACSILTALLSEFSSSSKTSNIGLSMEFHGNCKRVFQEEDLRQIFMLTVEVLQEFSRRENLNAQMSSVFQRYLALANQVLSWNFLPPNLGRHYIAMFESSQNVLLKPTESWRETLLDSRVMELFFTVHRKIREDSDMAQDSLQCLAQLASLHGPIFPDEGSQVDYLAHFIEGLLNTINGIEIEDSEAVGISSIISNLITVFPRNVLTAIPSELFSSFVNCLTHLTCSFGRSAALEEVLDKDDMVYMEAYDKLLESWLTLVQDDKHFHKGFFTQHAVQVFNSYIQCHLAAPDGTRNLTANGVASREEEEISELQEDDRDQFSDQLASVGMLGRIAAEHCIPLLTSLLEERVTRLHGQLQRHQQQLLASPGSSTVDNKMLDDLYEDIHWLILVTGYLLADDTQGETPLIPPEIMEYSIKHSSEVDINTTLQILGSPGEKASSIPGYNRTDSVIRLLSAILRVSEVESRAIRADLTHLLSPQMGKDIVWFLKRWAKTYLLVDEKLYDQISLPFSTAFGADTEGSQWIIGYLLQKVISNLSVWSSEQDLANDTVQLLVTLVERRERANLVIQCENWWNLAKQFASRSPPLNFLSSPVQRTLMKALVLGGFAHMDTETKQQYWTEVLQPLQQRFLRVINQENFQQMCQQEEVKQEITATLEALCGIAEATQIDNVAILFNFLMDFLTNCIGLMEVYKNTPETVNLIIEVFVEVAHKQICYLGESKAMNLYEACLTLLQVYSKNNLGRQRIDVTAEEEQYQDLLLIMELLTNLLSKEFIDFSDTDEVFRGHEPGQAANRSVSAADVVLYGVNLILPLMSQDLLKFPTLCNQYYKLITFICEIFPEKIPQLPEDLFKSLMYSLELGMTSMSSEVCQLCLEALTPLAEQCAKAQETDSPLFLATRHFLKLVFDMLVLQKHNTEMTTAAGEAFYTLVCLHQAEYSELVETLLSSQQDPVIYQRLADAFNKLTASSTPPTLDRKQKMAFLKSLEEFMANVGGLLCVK
Sequence of Peroxisomal biogenesis factor 3 (Homo sapiens) (P56589 whole entry): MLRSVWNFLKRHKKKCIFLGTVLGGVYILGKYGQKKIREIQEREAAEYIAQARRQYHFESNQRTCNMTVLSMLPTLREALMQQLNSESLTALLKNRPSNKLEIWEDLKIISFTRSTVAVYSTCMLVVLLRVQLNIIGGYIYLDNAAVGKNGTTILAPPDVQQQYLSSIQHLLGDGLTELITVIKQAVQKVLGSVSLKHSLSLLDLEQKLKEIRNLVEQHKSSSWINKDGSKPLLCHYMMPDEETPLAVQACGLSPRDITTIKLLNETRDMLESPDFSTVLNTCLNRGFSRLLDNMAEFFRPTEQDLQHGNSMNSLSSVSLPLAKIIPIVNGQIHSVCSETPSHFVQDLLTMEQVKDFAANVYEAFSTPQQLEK
Sequence of Dolichyl-diphosphooligosaccharide--protein glycosyltransferase 48 kDa subunit (Homo sapiens) (P39656 whole entry): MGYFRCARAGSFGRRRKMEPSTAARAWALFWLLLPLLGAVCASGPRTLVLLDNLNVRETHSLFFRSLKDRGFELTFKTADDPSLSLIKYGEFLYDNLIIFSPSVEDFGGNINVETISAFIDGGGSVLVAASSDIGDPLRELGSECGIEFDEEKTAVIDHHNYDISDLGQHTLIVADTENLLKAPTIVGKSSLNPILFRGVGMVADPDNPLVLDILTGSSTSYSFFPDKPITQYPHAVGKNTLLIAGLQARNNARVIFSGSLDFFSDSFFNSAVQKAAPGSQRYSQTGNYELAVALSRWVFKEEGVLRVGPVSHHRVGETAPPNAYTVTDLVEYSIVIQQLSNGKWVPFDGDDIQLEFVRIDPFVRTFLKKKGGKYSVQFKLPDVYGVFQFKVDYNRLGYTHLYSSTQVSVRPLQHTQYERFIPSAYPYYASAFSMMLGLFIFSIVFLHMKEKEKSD
Sequence of Macrophage-stimulating protein receptor (Homo sapiens) (Q04912 25-304 limits assumed): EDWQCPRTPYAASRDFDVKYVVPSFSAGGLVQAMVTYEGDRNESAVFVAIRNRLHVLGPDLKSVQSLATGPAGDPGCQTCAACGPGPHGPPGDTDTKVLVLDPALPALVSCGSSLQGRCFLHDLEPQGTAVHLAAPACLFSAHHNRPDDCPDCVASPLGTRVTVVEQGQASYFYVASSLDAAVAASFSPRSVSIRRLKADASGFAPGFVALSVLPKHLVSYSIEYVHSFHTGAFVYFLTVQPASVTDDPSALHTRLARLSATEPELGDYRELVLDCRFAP
Sequence of Macrophage-stimulating protein receptor (Homo sapiens) (Q04912 310-1400 limits assumed): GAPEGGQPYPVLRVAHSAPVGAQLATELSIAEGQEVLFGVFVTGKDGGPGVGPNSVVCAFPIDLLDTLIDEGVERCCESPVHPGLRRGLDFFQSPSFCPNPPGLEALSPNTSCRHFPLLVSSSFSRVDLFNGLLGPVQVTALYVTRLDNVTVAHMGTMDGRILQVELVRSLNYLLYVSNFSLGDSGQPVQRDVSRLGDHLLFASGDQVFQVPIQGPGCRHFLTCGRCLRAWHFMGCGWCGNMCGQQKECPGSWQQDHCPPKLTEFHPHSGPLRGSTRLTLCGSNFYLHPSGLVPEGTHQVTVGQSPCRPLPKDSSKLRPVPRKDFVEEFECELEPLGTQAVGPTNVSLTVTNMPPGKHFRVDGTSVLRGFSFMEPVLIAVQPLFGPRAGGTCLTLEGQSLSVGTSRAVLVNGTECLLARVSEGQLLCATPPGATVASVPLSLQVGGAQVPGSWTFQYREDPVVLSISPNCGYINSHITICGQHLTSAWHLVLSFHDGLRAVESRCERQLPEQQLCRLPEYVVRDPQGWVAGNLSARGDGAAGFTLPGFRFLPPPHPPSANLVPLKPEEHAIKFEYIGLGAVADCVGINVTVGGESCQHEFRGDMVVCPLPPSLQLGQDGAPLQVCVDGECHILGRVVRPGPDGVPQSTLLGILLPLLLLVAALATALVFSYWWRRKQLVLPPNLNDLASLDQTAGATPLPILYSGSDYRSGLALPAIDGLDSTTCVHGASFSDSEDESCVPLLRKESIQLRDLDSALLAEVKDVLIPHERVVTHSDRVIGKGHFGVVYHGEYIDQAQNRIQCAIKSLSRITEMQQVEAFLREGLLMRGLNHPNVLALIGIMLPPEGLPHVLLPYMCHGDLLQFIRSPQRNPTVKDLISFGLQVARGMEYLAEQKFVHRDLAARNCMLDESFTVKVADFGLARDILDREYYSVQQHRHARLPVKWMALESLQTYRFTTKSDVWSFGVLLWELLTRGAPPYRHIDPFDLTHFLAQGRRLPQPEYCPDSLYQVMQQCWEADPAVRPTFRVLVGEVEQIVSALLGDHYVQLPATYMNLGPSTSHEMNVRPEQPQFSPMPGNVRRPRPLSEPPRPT
Sequence of Cytochrome c oxidase assembly protein COX14 (Homo sapiens) (Q96I36 whole entry): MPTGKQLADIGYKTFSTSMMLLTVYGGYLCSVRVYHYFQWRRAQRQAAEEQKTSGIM

`Cc1ccc(C(=O)Nc2cccc(C(F)(F)F)c2)cc1Nc1nc(-c2cccnc2)nc2c1cnn2C` showed an ED50 [1] of 12.2 µM, an ED50 [2] of 0.0115 µM and an ED50 (Homo sapiens [3]) of 0.887 µM. The ED50 [4] was 2.87 µM, the ED50 [5] was 0.000171 µM and the ED50 [6] was 0.00224 µM. It also gave an ED50 [7] of 9.58 µM, an ED50 [8] of 0.00691 µM and an ED50 [9] of 0.0155 µM. It also gave an ED50 [10] of 89.9 µM, an ED50 [11] of 0.00634 µM and an ED50 [12] of 0.136 µM. It also gave an ED50 [13] of 0.584 µM, an ED50 (Macoilin (Homo sapiens)) of 0.092 µM and an ED50 [14] of 45.6 µM. The ED50 (Homo sapiens [15]) was 5.36 µM, the ED50 [16] was 5.72 µM and the ED50 [17] was 6.96 µM. It also gave an ED50 [18] of 0.00416 µM, an ED50 (Homo sapiens [19]) of 4.42 µM and an ED50 [20] of 0.0911 µM. It also gave an ED50 [21] of 61.8 µM, an ED50 [22] of 0.00939 µM and an ED50 [23] of 0.00143 µM. For the same compound, the ED50 [24] was 1.99 µM, the ED50 [25] was 0.00496 µM and the ED50 [26] was 4.33 µM. The ED50 [27] was 0.0279 µM, the ED50 [28] was 0.675 µM and the ED50 [29] was 23.2 µM. The ED50 [30] was 5.95 µM, the ED50 [31] was 0.00584 µM and the ED50 [32] was 17.6 µM. The ED50 [33] was 0.0986 µM, the ED50 [34] was 1.85 µM and the ED50 [35] was 0.0901 µM. It also gave an ED50 [36] of 6.66 µM, an ED50 [37] of 1.18 µM and an ED50 [38] of 0.169 µM. It also gave an ED50 [39] of 6210 µM and an ED50 [40] of 0.00594 µM.

For `Cc1ccc(C(=O)Nc2cccc(C(F)(F)F)c2)cc1Nc1nc(-c2cccnc2)nc2nn(C)cc12`, the ED50 [41] was 0.136 µM, the ED50 [42] was 2.52 µM and the ED50 [43] was 0.0595 µM. For the same compound, the ED50 [44] was 8.08 µM, the ED50 [45] was 0.516 µM and the ED50 [46] was 0.535 µM.
